We go through 1 compound from patent US6596772B1, “Phosphate mimics and methods of treatment using phosphatase inhibitors” (Sugen, Inc., priority 1999, dated 2003).

Common to all, as to experiment: PTP IC50 assay, pNPP or FDP as substrate
Common to all, as to type: biochemical

The target in assay [1] is T1, PTP BETA (Homo sapiens, UniProt P23467).
T1 construct: The catalytic domain was amplified using the following oligonucleotides; made in house; host or cells: E. coli BL-21 (pGEX 6P-1)
The settings on record: pNPP or FDP as substrate, 25° C.; read-out: PTP IC50 Beta.

The target in assay [2] is T2, PTP MU (Homo sapiens, UniProt P28827).
T2 construct: made in house; host or cells: E. coli BL-21 (pGEX 6P-1)
T2 sequence (P28827 831-1186 limits assumed): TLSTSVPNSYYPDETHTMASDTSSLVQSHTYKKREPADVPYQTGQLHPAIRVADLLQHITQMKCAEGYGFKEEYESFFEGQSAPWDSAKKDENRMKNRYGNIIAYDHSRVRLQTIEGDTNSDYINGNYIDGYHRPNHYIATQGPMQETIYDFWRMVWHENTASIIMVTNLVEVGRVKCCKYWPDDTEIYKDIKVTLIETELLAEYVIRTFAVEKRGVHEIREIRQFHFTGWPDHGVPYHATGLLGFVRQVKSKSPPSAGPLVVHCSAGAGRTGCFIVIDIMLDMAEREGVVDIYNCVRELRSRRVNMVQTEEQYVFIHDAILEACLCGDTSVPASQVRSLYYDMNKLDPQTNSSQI
To be noted: pNPP or FDP as substrate, 25° C.; read-out: PTP IC50 Mu.

The target of assay [3] is T3, PTP MEG2 (Homo sapiens, UniProt P43378).
T3 construct: made in house; host or cells: E. coli BL-21 (pGEX 6P-1)
T3 sequence (P43378 262-593 limits assumed): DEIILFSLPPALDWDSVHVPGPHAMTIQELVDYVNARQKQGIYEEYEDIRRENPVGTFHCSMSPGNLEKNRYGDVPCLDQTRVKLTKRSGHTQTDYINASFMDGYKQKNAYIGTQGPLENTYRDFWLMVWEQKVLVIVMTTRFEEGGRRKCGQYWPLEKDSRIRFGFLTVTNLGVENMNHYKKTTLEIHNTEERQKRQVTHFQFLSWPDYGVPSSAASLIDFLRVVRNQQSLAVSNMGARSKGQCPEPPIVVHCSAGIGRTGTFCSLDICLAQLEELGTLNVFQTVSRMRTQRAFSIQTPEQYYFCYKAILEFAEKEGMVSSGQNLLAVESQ
The settings on record: pNPP or FDP as substrate, 25° C.; read-out: PTP IC50 MEG2. In a few lines:
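Human PTP MEG2 was cloned into pGex 6P-1 for GST-fusion expression. Absorbance at 410 nm gave % inhibition, with the IC50 interpolated from the concentration plot.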

Assay [4] deals with T4, PTP ALPHA (Homo sapiens, UniProt P18433).
T4 construct: RTPα intracellular domain construct was obtained; made in house; host or cells: E. coli BL-21 (pGEX 3X)
To be noted: 25° C.

The target in assay [5] is T5, PTP EPSILON (Homo sapiens, UniProt P23469).
T5 construct: made in house; host or cells: Sf-9 insect cells (pFastBac-G2T); a pGEX 6P-1 construct also existed
T5 sequence (P23469 80-393 limits assumed): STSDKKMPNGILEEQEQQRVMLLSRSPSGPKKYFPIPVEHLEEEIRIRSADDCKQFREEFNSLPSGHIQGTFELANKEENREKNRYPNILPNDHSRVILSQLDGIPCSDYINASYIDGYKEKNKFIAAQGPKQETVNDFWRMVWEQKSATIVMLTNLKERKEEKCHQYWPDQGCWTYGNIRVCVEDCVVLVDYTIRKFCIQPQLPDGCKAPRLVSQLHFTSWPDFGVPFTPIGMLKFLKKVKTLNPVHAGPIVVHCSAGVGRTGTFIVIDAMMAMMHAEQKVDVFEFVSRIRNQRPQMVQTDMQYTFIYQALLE
To be noted: pNPP or FDP as substrate, 25° C.; read-out: PTP IC50 Epilson. The procedure, abridged: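 Human PTPε was GST-tagged and subcloned for baculovirus expression. After NaOH quench, p-nitrophenol was read at 410 nm with no-enzyme correction, and IC50 was interpolated from % inhibition.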

What is called IC50 is the point on the concentration scale where inhibition reaches its midpoint.

Molecules are shown by their SMILES.

T1 sequence (P23467 1653-1997): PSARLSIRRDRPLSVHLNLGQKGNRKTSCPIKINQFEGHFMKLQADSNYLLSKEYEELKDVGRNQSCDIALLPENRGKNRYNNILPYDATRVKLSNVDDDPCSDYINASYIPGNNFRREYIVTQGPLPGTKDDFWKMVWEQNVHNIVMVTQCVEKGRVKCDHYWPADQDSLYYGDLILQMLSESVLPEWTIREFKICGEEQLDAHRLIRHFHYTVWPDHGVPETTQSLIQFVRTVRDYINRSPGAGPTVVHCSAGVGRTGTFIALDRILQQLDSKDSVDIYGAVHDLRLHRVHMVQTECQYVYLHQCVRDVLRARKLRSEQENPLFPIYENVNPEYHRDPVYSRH

In the case of `O=C(O)Cc1ccc(CC(=O)Nc2cccc(S(=O)(=O)C(F)(F)F)c2)cc1` [Example 29, {4-[(3-Trifluoromethanesulfonyl-phenylcarbamoyl)-methyl]-phenyl}-acetic acid], the IC50 in assay [1] was 6.4 µM; in assay [2], greater than 100 µM; in assay [3], 68.3 µM; in assay [4] it was 19.3 µM; in assay [5], 26.1 µM.
